Patent US20200239530A1, “COMPOUNDS AND METHODS OF MODULATING PROTEIN DEGRADATION” (Vividion Therapeutics, Inc., priority 2017, published 2020)
Where two headings read alike, the source gives them in different places.

What was measured:
Test in all cases: Cysteine liganding, probe competition
Type in all cases: binding
UniProt Q9BVG3 = biological target: T1, UniProt Q9BVG3 (Homo sapiens, UniProt Q9BVG3)
T1 construct: 200 μL of lysate containing 5 mg/ml proteome was treated with 2 μL of 100× compound stock; endogenous in cells
Description: (§1) The following 96-well sample prep protocol was used for sample preparation.

UniProt Q9BWF2 = biological target: T2, UniProt Q9BWF2 (Homo sapiens, UniProt Q9BWF2)
T2 construct: 200 μL of lysate containing 5 mg/ml proteome was treated with 2 μL of 100× compound stock; endogenous in cells
T2 sequence (Q9BWF2 1-469): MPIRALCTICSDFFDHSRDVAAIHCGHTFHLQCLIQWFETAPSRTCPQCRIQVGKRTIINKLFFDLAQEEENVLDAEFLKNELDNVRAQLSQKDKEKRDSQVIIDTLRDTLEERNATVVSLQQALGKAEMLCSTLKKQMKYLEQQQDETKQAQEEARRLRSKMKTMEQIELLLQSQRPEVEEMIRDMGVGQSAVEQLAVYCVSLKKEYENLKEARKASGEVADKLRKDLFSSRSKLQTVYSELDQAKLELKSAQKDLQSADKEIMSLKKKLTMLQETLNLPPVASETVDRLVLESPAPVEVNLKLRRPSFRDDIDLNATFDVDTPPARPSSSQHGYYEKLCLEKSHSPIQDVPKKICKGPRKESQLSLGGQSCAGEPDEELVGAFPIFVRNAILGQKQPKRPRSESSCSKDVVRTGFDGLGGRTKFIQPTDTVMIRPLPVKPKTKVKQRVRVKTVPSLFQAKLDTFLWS
Description: as §1

UniProt Q9NX47 = biological target: T3, UniProt Q9NX47 (Homo sapiens, UniProt Q9NX47)
T3 construct: Cells were resuspended in cold PBS on ice and sonicated with a probe sonicator to achieve lysis; endogenous in cells
Description: as §1

UniProt Q9UPQ4 = biological target: T4, UniProt Q9UPQ4 (Homo sapiens, UniProt Q9UPQ4)
T4 construct: 200 μL of lysate containing 5 mg/ml proteome was treated with 2 μL of 100× compound stock; endogenous in cells
T4 sequence (Q9UPQ4 1-493): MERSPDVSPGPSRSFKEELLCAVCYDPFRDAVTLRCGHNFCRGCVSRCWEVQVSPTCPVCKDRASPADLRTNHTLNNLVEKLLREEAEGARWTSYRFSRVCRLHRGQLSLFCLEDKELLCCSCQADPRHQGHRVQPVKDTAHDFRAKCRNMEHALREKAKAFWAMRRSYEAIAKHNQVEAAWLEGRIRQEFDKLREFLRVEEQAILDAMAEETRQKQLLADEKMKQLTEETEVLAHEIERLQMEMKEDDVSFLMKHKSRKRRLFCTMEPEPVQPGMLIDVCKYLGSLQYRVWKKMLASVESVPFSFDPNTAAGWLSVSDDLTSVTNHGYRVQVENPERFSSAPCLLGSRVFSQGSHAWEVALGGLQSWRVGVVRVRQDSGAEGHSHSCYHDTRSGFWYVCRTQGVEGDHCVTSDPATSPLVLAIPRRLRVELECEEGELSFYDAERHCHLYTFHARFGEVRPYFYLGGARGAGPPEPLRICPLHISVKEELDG
Description: as §1

UniProt P46934 = biological target: T5, UniProt P46934 (Homo sapiens, UniProt P46934)
T5 construct: Cells were resuspended in cold PBS on ice and sonicated with a probe sonicator to achieve lysis; endogenous in cells
T5 sequence (P46934 1-1319): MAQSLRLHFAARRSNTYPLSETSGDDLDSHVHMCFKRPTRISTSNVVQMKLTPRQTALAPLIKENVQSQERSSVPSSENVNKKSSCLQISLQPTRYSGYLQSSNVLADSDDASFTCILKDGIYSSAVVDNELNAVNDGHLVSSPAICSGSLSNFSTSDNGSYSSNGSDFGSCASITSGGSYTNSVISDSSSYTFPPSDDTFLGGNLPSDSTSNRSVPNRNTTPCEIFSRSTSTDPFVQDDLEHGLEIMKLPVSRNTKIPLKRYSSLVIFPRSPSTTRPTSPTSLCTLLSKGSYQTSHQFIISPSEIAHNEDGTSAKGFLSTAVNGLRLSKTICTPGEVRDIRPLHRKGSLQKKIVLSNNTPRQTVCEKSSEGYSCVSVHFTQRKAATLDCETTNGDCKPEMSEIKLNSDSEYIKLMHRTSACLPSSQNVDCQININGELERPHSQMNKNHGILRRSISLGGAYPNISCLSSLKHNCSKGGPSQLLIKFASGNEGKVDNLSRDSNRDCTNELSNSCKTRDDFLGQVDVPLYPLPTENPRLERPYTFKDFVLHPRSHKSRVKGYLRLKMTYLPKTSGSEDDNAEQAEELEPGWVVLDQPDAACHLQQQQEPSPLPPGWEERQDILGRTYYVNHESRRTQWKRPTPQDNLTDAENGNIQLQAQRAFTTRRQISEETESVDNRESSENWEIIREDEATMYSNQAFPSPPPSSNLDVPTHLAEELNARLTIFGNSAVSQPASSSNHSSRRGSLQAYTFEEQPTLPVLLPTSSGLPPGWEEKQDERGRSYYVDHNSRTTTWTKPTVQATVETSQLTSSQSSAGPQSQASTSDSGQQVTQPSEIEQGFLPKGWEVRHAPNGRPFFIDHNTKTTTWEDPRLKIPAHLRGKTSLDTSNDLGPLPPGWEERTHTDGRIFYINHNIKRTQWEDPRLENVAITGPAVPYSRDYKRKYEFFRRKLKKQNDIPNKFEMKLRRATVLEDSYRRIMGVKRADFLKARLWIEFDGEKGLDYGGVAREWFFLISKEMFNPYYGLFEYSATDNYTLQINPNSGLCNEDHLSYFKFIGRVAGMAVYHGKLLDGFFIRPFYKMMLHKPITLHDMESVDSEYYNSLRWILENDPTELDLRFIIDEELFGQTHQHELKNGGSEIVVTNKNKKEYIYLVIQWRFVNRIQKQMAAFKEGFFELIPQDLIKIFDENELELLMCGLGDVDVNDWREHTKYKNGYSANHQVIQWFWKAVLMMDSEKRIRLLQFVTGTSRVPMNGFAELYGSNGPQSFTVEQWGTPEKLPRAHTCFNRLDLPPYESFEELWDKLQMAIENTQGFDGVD
Description: as §1

UniProt Q8IY92 = biological target: T6, UniProt Q8IY92 (Homo sapiens, UniProt Q8IY92)
T6 construct: 200 μL of lysate containing 5 mg/ml proteome was treated with 2 μL of 100× compound stock; endogenous in cells
Description: as §1

UniProt Q9H992 = biological target: T7, UniProt Q9H992 (Homo sapiens, UniProt Q9H992)
T7 construct: Cells were resuspended in cold PBS on ice and sonicated with a probe sonicator to achieve lysis; endogenous in cells
Description: as §1

UniProt Q9HCE7 = biological target: T8, UniProt Q9HCE7 (Homo sapiens, UniProt Q9HCE7)
T8 construct: 200 μL of lysate containing 5 mg/ml proteome was treated with 2 μL of 100× compound stock; endogenous in cells
Description: as §1

UniProt Q9UJ41 = biological target: T9, UniProt Q9UJ41 (Homo sapiens, UniProt Q9UJ41)
T9 construct: 200 μL of lysate containing 5 mg/ml proteome was treated with 2 μL of 100× compound stock; endogenous in cells
Description: as §1

[1] = 100 uM, read-out: KB02_100 uM_percent_inhibition
[2] = 500 uM, read-out: KB02_500 uM_percent_inhibition

T6 sequence (Q8IY92 whole entry, change not shown): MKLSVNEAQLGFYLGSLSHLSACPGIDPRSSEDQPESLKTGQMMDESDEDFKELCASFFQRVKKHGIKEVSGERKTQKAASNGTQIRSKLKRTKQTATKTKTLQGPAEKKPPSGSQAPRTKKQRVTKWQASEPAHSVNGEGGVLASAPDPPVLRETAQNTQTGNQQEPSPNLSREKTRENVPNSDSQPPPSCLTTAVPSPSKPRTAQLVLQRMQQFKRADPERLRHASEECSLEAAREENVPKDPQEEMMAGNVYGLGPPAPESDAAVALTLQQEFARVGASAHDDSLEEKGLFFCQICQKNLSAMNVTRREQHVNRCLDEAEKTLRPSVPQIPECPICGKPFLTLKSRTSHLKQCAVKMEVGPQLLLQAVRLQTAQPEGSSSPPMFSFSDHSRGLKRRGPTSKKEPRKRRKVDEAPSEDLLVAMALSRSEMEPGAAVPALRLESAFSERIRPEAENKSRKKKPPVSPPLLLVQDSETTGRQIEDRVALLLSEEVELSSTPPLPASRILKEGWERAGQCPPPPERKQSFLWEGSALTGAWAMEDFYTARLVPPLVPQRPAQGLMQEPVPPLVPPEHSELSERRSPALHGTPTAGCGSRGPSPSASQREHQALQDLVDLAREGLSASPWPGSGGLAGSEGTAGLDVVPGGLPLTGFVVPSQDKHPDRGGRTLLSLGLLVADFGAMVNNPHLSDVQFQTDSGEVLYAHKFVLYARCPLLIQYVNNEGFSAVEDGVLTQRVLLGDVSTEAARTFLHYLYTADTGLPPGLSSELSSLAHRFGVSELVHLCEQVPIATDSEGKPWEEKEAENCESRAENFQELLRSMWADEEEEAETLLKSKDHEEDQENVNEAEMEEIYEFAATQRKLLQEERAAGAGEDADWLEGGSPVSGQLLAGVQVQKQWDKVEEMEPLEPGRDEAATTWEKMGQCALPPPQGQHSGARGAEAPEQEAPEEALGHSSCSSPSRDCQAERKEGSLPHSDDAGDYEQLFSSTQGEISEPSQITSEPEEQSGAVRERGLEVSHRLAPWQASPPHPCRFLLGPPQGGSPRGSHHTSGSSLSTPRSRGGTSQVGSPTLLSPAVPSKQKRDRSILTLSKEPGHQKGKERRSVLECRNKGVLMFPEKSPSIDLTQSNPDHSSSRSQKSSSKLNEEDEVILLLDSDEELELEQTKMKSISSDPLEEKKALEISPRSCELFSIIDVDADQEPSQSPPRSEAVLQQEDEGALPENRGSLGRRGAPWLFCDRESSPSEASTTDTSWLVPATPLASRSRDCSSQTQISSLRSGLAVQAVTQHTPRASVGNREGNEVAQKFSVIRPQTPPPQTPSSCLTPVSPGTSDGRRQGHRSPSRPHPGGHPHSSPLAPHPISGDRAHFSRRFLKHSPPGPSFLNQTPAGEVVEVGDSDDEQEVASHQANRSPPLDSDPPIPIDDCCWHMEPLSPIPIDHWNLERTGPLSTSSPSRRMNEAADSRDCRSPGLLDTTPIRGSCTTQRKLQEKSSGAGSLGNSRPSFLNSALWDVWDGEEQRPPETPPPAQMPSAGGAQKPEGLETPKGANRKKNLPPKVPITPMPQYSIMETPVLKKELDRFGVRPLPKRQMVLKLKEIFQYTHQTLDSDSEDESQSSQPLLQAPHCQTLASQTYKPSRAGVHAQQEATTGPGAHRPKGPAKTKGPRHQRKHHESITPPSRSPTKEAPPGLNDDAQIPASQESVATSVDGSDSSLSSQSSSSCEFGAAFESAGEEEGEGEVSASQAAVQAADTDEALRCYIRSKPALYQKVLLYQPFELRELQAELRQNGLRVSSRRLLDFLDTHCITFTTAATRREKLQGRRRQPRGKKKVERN
T9 sequence (Q9UJ41 whole entry, change not shown): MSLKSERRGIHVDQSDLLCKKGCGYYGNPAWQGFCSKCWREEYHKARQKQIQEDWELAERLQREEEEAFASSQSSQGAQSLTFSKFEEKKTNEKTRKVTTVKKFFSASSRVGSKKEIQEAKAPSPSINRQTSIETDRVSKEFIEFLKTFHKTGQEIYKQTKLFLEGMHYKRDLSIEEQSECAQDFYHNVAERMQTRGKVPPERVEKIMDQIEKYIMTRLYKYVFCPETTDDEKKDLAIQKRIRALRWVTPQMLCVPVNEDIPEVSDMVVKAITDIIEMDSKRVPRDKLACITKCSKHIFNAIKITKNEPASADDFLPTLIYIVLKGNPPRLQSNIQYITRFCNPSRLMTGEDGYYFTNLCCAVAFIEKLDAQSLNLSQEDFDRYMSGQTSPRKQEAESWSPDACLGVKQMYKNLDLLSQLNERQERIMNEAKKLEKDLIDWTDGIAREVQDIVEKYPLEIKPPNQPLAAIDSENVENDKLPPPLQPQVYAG
T8 sequence (Q9HCE7 whole entry, change not shown): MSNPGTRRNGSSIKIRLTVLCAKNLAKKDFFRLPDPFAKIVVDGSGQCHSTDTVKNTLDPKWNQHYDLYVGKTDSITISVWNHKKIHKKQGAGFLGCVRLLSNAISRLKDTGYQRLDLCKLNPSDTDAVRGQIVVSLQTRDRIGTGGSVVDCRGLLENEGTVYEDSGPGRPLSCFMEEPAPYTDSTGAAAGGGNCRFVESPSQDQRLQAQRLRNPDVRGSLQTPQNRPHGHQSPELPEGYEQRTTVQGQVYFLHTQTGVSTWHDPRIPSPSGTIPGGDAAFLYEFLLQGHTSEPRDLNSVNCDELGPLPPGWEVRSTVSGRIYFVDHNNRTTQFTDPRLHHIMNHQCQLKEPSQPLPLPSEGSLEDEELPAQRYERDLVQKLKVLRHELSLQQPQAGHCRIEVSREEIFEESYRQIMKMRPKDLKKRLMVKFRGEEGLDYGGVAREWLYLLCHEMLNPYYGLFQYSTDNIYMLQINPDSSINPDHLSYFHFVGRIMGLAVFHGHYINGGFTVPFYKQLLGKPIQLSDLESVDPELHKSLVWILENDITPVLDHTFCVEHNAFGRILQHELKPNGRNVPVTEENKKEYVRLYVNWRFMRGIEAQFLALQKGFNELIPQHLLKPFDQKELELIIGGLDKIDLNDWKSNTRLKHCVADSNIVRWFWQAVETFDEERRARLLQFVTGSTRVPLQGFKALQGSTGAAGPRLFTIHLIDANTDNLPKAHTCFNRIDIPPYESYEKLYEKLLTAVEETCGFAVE
T3 sequence (Q9NX47 whole entry, change not shown): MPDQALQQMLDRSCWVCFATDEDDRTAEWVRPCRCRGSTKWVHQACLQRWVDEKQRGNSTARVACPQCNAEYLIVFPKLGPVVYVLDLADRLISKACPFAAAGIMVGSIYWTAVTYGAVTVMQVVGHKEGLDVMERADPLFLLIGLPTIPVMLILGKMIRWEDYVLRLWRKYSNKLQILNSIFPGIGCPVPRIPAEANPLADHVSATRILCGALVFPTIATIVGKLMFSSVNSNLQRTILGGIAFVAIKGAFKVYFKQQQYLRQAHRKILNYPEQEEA
T1 sequence (Q9BVG3 whole entry, change not shown): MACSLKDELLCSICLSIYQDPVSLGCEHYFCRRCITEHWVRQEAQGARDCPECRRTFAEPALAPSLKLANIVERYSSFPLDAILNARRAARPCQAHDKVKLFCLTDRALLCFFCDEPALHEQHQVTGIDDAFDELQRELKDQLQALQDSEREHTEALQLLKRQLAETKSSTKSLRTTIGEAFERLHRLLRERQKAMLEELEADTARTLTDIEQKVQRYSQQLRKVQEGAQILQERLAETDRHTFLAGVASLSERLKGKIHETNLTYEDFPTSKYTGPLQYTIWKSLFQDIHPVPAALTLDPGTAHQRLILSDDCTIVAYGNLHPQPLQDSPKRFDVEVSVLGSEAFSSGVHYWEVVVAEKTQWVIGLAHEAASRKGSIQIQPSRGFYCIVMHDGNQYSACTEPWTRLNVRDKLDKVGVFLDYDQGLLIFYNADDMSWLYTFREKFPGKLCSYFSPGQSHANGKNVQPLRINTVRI
T7 sequence (Q9H992 whole entry, change not shown): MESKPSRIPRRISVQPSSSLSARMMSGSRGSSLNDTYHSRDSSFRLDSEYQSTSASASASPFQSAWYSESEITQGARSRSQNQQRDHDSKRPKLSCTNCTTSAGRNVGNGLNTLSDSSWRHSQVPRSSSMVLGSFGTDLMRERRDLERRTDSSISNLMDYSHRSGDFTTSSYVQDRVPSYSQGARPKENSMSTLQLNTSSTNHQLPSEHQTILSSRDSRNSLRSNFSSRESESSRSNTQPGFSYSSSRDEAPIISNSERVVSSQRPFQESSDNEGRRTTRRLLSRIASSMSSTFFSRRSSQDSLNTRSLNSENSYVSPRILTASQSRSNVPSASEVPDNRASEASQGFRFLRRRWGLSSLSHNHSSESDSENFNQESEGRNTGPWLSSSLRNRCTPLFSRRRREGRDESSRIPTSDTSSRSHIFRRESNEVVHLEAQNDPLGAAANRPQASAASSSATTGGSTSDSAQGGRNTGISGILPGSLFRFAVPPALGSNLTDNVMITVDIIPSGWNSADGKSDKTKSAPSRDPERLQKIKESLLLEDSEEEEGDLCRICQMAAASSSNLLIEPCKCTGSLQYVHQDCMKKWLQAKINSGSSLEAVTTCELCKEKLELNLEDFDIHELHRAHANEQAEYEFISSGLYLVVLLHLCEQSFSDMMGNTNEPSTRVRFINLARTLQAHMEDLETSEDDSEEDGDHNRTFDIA

`COc1ccc2c(c1)CCCN2C(=O)CCl` [KB02] was tested, and the inhibition at 100 µM (UniProt Q9BVG3; [1]) was 1%, the inhibition at 100 µM (UniProt Q9BWF2; [1]) was 10% and the “KB02_500 uM_percent_inhibition” value (UniProt Q9BWF2; 500 uM) was 52%. The inhibition at 500 µM (UniProt Q9BWF2; [2]) was 36%, the inhibition at 100 µM (UniProt Q9NX47; read-out: percent inhibition) was 7% and the inhibition at 100 µM (UniProt Q9UPQ4; [1]) was 10%. The inhibition at 500 µM (UniProt Q9UPQ4; [2]) was 27%.

For `C=CC(=O)N(c1ccccc1)c1ccc(Br)cc1` [KB05], the inhibition at 100 µM (UniProt P46934; 100 uM, read-out: percent inhibition) was 52%, the inhibition at 500 µM (UniProt P46934; 500 uM, read-out: percent inhibition) was 53% and the inhibition at 100 µM (UniProt Q8IY92; read-out: percent_inhibition) was 10%. For the same molecule, the “KB05_500 uM_percent_inhibition” value (UniProt Q9BWF2; 500 uM) was 29%, the inhibition at 500 µM (UniProt Q9BWF2; 500 uM, read-out: KB05_500 uM_percent_inhibition) was 22% and the inhibition at 100 µM (UniProt Q9H992; read-out: percent inhibition) was 21%. The inhibition at 100 µM (UniProt Q9HCE7; read-out: percent_inhibition) was 52% and the inhibition at 100 µM (UniProt Q9UJ41; read-out: KB05_100 uM_percent_inhibition) was 33%.

Molecule `O=C(CCl)Nc1cc(C(F)(F)F)cc(C(F)(F)F)c1` [KBO3] has a percent inhibition (UniProt P46934; 100 uM) of 71%, a percent inhibition (UniProt P46934; 500 uM) of 76% and a percent_inhibition (UniProt Q8IY92; 100 uM) of 8%. The “KB03_500 uM_percent_inhibition” value (UniProt Q9BVG3; 500 uM) was 59%, the percent inhibition (UniProt Q9H992; 100 uM) was 82% and the percent_inhibition (UniProt Q9HCE7; 100 uM) was 71%. For the same molecule, the percent inhibition (UniProt Q9NX47; 100 uM) was 30%, the “KB03_100 uM_percent_inhibition” value (UniProt Q9UJ41; 100 uM) was 20% and the “KB03_500 uM_percent_inhibition” value (UniProt Q9UPQ4; 500 uM) was 32%.
